The results in this text go back to ChEMBL document CHEMBL6087461, “Cell-Permeable Peptide Inhibitors of the p53-hDM2 Interaction via Foldamer Helix Mimicry and Bis-Thioether Stapling” (J Med Chem, 2025).

Starred links: 1 amine or outer side, 2 acyl side, 3 side chain; linkers in the order of their positions; H or OH if unused. Positions of bridges follow the written chain, without caps; N, C: chain ends. Residues, ends and D or L forms follow the SMILES beside them. *: point of attachment. X9 = CC(C)[C@@H](CNC(N)=O)NC(=O)NC[C@H](CSCc1ccc(-c2ccc(C[*:1])cc2)cc1)NC(=O)NC[C@H](C)N[*:2]; X6 = CC(C)[C@@H](CNC(N)=O)NC(=O)NC[C@H](CSCCCCCC[*:1])NC(=O)NC[C@H](C)N[*:2]; X3 = CC(C)[C@@H](CNC(N)=O)NC(=O)NC[C@H](C)NC(=O)NC[C@H](C)N*; CH2CONHCH2CH2NHCOCH2 = O=C(C[*:1])NCCNC(=O)C[*:2]; pXylylene = c1cc(C[*:2])ccc1C[*:1]; X14 = C(=C\C[*:2])/C[*:1]; X11 = C(CCC[*:2])CC[*:1]; CH2CH2 = C(C[*:2])[*:1]; X7 = C(CC[*:1])CC[*:2]

In assay [1] the target is Tumour suppressor p53/oncoprotein Mdm2 (Homo sapiens) (UniProt P04637+Q00987). Nature of the assay: PROTAC activity at human MDM2/p53 extracted from Escherichia coli interaction by measuring inhibition of interaction at 100 nM by time-resolved fluorescence energy transfer (TRFRET) detection method relative to control. It counts as protein assay. A general note: In TR-FRET formats the signal depends on donor and acceptor labels being close together.
Tumour suppressor p53/oncoprotein Mdm2 (Homo sapiens), sequence (P04637 whole entry, looked up): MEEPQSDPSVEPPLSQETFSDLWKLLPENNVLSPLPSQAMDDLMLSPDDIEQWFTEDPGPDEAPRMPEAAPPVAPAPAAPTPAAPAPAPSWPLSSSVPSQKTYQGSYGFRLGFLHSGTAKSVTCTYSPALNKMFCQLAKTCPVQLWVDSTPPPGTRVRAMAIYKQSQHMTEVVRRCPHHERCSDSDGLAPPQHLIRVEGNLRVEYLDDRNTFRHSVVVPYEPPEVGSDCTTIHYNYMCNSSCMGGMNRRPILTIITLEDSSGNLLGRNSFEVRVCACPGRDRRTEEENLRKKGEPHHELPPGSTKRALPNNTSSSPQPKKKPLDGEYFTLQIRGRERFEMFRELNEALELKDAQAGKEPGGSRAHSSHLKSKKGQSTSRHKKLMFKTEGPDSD
Tumour suppressor p53/oncoprotein Mdm2 (Homo sapiens), sequence (Q00987 whole entry, looked up): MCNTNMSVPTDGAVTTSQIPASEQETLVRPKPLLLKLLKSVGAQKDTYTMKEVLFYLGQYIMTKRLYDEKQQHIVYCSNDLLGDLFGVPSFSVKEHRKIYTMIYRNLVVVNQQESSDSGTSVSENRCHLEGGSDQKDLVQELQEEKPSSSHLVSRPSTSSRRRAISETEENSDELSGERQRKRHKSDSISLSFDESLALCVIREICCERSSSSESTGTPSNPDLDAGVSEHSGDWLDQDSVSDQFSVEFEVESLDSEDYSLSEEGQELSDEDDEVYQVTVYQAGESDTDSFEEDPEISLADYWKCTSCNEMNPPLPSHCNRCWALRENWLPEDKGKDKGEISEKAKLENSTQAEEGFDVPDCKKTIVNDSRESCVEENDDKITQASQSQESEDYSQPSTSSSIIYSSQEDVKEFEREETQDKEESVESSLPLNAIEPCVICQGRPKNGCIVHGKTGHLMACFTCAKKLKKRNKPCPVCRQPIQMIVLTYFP

For assay [2], the target named is Tumour suppressor protein p53/Mdm4 (Homo sapiens) (UniProt P04637+O15151). Description: PROTAC activity at human DMX/p53 extracted from Escherichia coli interaction at 100 nM by measuring inhibition of interaction by time-resolved fluorescence energy transfer (TRFRET) detection method relative to control. Format: protein assay.
Tumour suppressor protein p53/Mdm4 (Homo sapiens), sequence (O15151 whole entry, looked up): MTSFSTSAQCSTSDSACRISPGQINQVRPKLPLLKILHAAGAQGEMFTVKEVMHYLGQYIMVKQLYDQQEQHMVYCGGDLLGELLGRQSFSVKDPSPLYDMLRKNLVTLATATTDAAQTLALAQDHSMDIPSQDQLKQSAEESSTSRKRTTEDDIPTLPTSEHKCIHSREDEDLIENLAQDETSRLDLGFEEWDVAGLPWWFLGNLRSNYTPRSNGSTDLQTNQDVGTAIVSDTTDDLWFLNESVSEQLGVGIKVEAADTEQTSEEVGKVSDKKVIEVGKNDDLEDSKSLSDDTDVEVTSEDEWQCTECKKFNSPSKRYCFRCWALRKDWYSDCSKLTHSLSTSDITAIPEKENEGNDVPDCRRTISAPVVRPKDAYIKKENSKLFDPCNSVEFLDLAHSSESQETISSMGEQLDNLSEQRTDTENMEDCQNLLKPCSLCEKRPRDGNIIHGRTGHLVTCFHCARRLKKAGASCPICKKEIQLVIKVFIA
Tumour suppressor protein p53/Mdm4 (Homo sapiens), sequence (P04637 whole entry, looked up): as the sequence (P04637 whole entry, looked up) above

As a reminder, the inhibition is the drop in the measured response relative to a control, in per cent. `CC(C)[C@@H](CNC(N)=O)NC(=O)NC[C@H](C)NC(=O)NC[C@H](C)NC(=O)[C@H](Cc1c[nH]c2ccccc12)NC(=O)[C@H](Cc1ccc(O)cc1)NC(=O)[C@@H]1CSSC[C@H](N)C(=O)N[C@@H](CO)C(=O)N[C@@H](Cc2ccccc2)C(=O)N[C@@H](C)C(=O)N1` (H-CSFACYW-X3; disulfide 1-5): the inhibition in assay [1] is 20%; in assay [2], -4%.
On to `CC(C)[C@@H](CNC(N)=O)NC(=O)NC[C@H](C)NC(=O)NC[C@H](C)NC(=O)[C@H](Cc1c[nH]c2ccccc12)NC(=O)[C@H](Cc1ccc(O)cc1)NC(=O)[C@@H]1CSCCSC[C@H](N)C(=O)N[C@@H](CO)C(=O)N[C@@H](Cc2ccccc2)C(=O)N[C@@H](C)C(=O)N1` (H-CSFACYW-X3; linker 1-5 via CH2CH2), for which the inhibition in assay [1] worked out at 47%; in assay [2], 39%.
Turning to `CC(C)[C@@H](CNC(N)=O)NC(=O)NC[C@H](C)NC(=O)NC[C@H](C)NC(=O)[C@H](Cc1c[nH]c2ccccc12)NC(=O)[C@H](Cc1ccc(O)cc1)NC(=O)[C@@H]1CSCC(=O)NCCNC(=O)CSC[C@H](N)C(=O)N[C@@H](CO)C(=O)N[C@@H](Cc2ccccc2)C(=O)N[C@@H](C)C(=O)N1` (H-CSFACYW-X3; linker 1-5 via CH2CONHCH2CH2NHCOCH2), the inhibition in assay [1] turned out to be 83%; in assay [2], 47%.
In the case of `CC(C)[C@@H](CNC(N)=O)NC(=O)NC[C@H](C)NC(=O)NC[C@H](C)NC(=O)[C@H](Cc1c[nH]c2ccccc12)NC(=O)[C@H](Cc1ccc(O)cc1)NC(=O)[C@@H]1CSCCCCCSC[C@H](N)C(=O)N[C@@H](CO)C(=O)N[C@@H](Cc2ccccc2)C(=O)N[C@@H](C)C(=O)N1` (H-CSFACYW-X3; linker 1-5 via X7), the results for the inhibition in assay [1] and in assay [2] were 58% and 16%, respectively.
The corresponding values for `CC(C)[C@@H](CNC(N)=O)NC(=O)NC[C@H](C)NC(=O)NC[C@H](C)NC(=O)[C@H](Cc1c[nH]c2ccccc12)NC(=O)[C@H](Cc1ccc(O)cc1)NC(=O)[C@@H]1CSCCCCCCSC[C@H](N)C(=O)N[C@@H](CO)C(=O)N[C@@H](Cc2ccccc2)C(=O)N[C@@H](C)C(=O)N1` (H-CSFACYW-X3; linker 1-5 via X11) are 15% and 1%.
For the molecule `CC(C)[C@@H](CNC(N)=O)NC(=O)NC[C@H](C)NC(=O)NC[C@H](C)NC(=O)[C@H](Cc1c[nH]c2ccccc12)NC(=O)[C@H](Cc1ccc(O)cc1)NC(=O)[C@@H]1CSC/C=C/CSC[C@H](N)C(=O)N[C@@H](CO)C(=O)N[C@@H](Cc2ccccc2)C(=O)N[C@@H](C)C(=O)N1` (H-CSFACYW-X3; linker 1-5 via X14), the inhibition in assay [1] was found to be 88%; in assay [2], 68%.
In the case of `CC(C)[C@@H](CNC(N)=O)NC(=O)NC[C@H](C)NC(=O)NC[C@H](C)NC(=O)[C@H](Cc1c[nH]c2ccccc12)NC(=O)[C@H](Cc1ccc(O)cc1)NC(=O)[C@@H]1CSCc2ccc(cc2)CSC[C@H](N)C(=O)N[C@@H](CO)C(=O)N[C@@H](Cc2ccccc2)C(=O)N[C@@H](C)C(=O)N1` (H-CSFACYW-X3; linker 1-5 via pXylylene), the values for the inhibition in assay [1] and in assay [2] were 37% and 14%, respectively.
With `CC(C)[C@@H](CNC(N)=O)NC(=O)NC[C@@H]1CSCCCCCCSC[C@H](N)C(=O)N[C@@H](CO)C(=O)N[C@@H](Cc2ccccc2)C(=O)N[C@@H](C)C(=O)N[C@@H](CCC(=O)O)C(=O)N[C@@H](Cc2ccc(O)cc2)C(=O)N[C@@H](Cc2c[nH]c3ccccc23)C(=O)N[C@@H](C)CNC(=O)N1` (H-CSFAEYW; linker 1-C via X6), the inhibition came to 70% in assay [1] and 54% in assay [2].
In the case of `CC(C)[C@@H](CNC(N)=O)NC(=O)NC[C@@H]1CSCc2ccc(cc2)-c2ccc(cc2)CSC[C@H](N)C(=O)N[C@@H](CO)C(=O)N[C@@H](Cc2ccccc2)C(=O)N[C@@H](C)C(=O)N[C@@H](CCC(=O)O)C(=O)N[C@@H](Cc2ccc(O)cc2)C(=O)N[C@@H](Cc2c[nH]c3ccccc23)C(=O)N[C@@H](C)CNC(=O)N1` (H-CSFAEYW; linker 1-C via X9), the inhibition in assay [1] turned out to be 7%; in assay [2] it was 10%.
